Results from patent publication US8153773B2, “Synthesis and use of anti-reverse phosphorothioate analogs of the messenger RNA cap” (Board of Supervisors of Louisiana State University and …, priority 2007, dated 2012).
Entries after “also recorded” stand apart in the source; their conditions may differ.

Tests used:
hDcp2 = hDcp2 (Homo sapiens, UniProt Q8IU60); experiment: In vitro RNA decapping assay with recombinant hDcp2; format: biochemical; details: for hydrolysis of capped oligonucleotide by hDcp2: capped 32P-labeled short RNA, recombinant hDcp2, anion exchange HPLC (FIG. 6); for Dcp2 susceptibility: radioactivity in pGp* as a percentage of total cap radioactivity, capped oligonucleotides digested with hDcp2
Experimental: Dcp2 activity was measured with capped 48-nt oligonucleotides as substrates, a truncated form of luciferase mRNA (48 nucleotides). GST-hDcp2 was expressed in Escherichia coli and purified as described by Z. Wang et al., “The hDcp2 protein is a mammalian mRNA decapping enzyme,” Proc. Natl. Acad. Sci. U.S.A., vol. 99, pp. 12663-12668 (2002). Capped oligonucleotides were first subjected to digestion with GST-hDcp2 at 37° C. for 2 h in decapping buffer (10 mM Tris-HCl, pH 7.5, 100 mM potassium acetate, 2 mM magnesium acetate, 0.5 mM MnCl2, 2 mM dithiothreitol, and 0.1 mM spermine). See C. Piccirillo et al., “Functional characterization of the mammalian mRNA decapping enzyme hDcp2,” RNA, vol. 9, pp. 1138-1147 (2003). The reaction mixture was then extracted once with an equal volume of phenol and twice with chloroform, and RNA was precipitated with ethanol. Products of the decapping reaction were further digested with a cocktail of ribonucleases (RiboShredder; Epicentre) at 37° C. for 1 h. The products were resolved by anion-exchange HPLC on a 4.6×250-mm Partisil 10SAX/25 column (Whatman). The gradient consisted of water for 1 min, a linear gradient to 112 mM KH2PO4, pH 4.5, for 20 min, a linear gradient of 112-450 mM KH2PO4 for 15 min, a linear gradient of 450 mM to 1.5 M KH2PO4 for 15 min, and isocratic elution at 1.5 M of KH2PO4 for 9 min, all at a flow rate 1 ml/min.
We tested oligonucleotides capped with either of S-ARCAs for hydrolysis by recombinant hDcp2 to test whether mRNA capped with the various diastereomers of m2^7,2′-OGpppsG and m2^7,2′-OGppspG would differ in their sensitivity to cleavage by Dcp1/Dcp2. See generally Z. Wang et al., “The hDcp2 protein is a mammalian mRNA decapping enzyme,” Proc. Natl. Acad. Sci. U.S.A., vol. 99, pp. 12663-12668 (2002), and Z. Wang et al., “An mRNA Stability Complex Functions with Poly(A)-Binding Protein To Stabilize mRNA In Vitro”, Mol. Cell. Biol., vol. 19, pp. 4552-4560 (1999). Cap analogs used were initially unlabeled, so to follow the products of the digestion reaction we synthesized capped oligonucleotides in the presence of [α-^32P]GTP and a DNA template in which G was the first ribonucleotide specified after the promoter. The oligonucleotides capped with either of the S-ARCAs were subjected to Dcp2 digestion in vitro, after which the products were further digested with a cocktail of ribonucleases (RiboShredder from Epicenter). Any nucleotide on the 5′ side of a G residue acquired a ^32P-labeled 3′-phosphate group after ribonuclease digestion by nearest-neighbor transfer. Anion exchange chromatography was then used to resolve the labeled 3′-nucleoside monophosphates (3′-NMP*), at internal positions in the RNA, from labeled 5′-terminal products (FIG. 6). The latter comprise p3 Gp* derived from uncapped transcripts and m2^7,2′-OGp3 Gp* (when m2^7,2′-OGp3G was used), or pGp* resulting from capped RNA resistant or nonresistant to enzymatic cleavage, respectively. All cap analogs used were ARCAs, which ensured that they were incorporated into RNA exclusively in the correct orientation. This further guaranteed that only one 5′-terminal product (m2^7,2′-OGp3 Gp*) was observed upon ribonuclease treatment. Uncapped RNA is not a substrate for Dcp2, which explains why p3 Gp* product was observed after Dcp2 digestion.
See E. Grudzien et al., “Differential inhibition of mRNA degradation pathways by novel cap analogs,” J. Biol. Chem., vol. 281, pp. 1857-1867 (2006).

HC11 cells = experiment: Translational efficiency of capped luciferase mRNA in HC11 cells; format: cell-based, mouse; details: Luc-A60 mRNA capped with the analog in HC11 cells, relative to m^7Gp3G-capped mRNA
Experimental: Two methods, electroporation and nucleoporation, were used to deliver RNA into cells. In case of electroporation, 5 μg of RNA were introduced into 10^7 HC11 cells in a total volume 400 μl of serum-reduced RPMI 1640 medium in a Gene pulser cuvette (4 mm gap) with a Bio-Rad Genepulser™ set at 0.22 kV and 960 μF. Following discharge, the cells were washed twice with PBS, centrifuged for 2 min 300×g at room temperature, resuspended in prewarmed complete medium, and placed at 37° C. Nucleoporation was performed with an Amaxa Nucleofector II (Amaxa Biosystems) in accordance with manufacture's recommendations. One microgram of RNA was introduced into 10^6 HC11 cells with Nucleofector Solution V and the set of recommended regimens (program T-024).
For measurement of translational efficiency, cells were divided into several Eppendorf tubes, placed in a water bath at 37° C., and shaken. For measurement of mRNA stability, cells were distributed into 35-mm cell culture dishes and placed at 37° C. in a 5% CO2 humidified atmosphere. Cells were harvested at various times and washed twice with PBS.
For cytoplasmic RNA extraction, 2×10^5 cells were lysed in 175 μl of lysis buffer (50 mM Tris-HCl, pH 8.0, 140 mM NaCl, 1.5 mM MgCl2, 0.5% (v/v) Igepal (Sigma), and 1 mM dithiothreitol). RNAs were further purified using the RNeasy mini kit. For protein extraction, 2×10^5 cells were lysed in 200 μl of Luciferase Cell Culture Lysis Reagent (Promega). Luciferase activity of cell extracts was measured according to the manufacturer's protocol (Promega).
We also determined the translational efficiency in cultured cells for luciferase mRNA capped with S-ARCAs. This involved two measurements conducted at various times following nucleoporation—luciferase activity measured by luminometry in cleared cell lysates, and Luc-A60 levels measured by real-time PCR. Luciferase activity was normalized by the amount of luciferase mRNA that had been delivered into cells. To determine the amount of RNA present in the cells at a time immediately after nucleoporation, i.e., before any decay had occurred, cells were harvested at various times between 2 to 8 h post-nucleoporation, and cytoplasmic RNA was extracted. The amount of luciferase mRNA was measured by real time PCR using primers that amplify sequences near the 5′-end. Luciferase mRNA remaining at each time point was plotted as log10 ([RNA]) versus time to determine t1/2. The curve was extrapolated to 0 h, and the amount of RNA delivered into the cells was calculated. We defined conditions under which the accumulation of luciferase was linear with time, after an initial lag period of ˜30 min for recruitment of mRNA to ribosomes, completing the first polypeptide chain, and release of luciferase into the cytosol.

Molecule | hydrolysis of capped oligonucleotide by hDcp2 (hDcp2) | Dcp2 susceptibility (hDcp2) [%] | Relative translational efficiency (HC11 cells) | Relative translational efficiency (HC11 cells; listed as m2^7,2′-OGppSpG (D1)) | Relative translational efficiency (HC11 cells; listed as m2^7,2′-OGppspG (D1)) | Relative translational efficiency (HC11 cells; listed as m2^7,2′-OGppSpG (D2)) | Relative translational efficiency (HC11 cells; listed as m2^7,2′-OGppspG (D2))
CO[C@@H]1[C@H](O)[C@@H](COP(=O)(O)OP(=O)([O-])OP(=O)(O)OC[C@H]2O[C@@H](n3cnc4c(=O)[nH]c(N)nc43)[C@H](O)[C@@H]2O)O[C@H]1n1c[n+](C)c2c(O)nc(N)nc21 [m2^7,2′-OGpppG, reference compound] | completely digested | 100 | 2.1 ± 0.2 |  |  |  | 
m2^7,2′-OGpppsG (D1) [Compound 4a] |  | 96 | 2.5 ± 0.8 |  |  |  | 
m2^7,2′-OGpppsG (D2) [Compound 4b] |  | 98 | 1.8 ± 0.4 |  |  |  | 
m2^7,2′-OGppspG (D1) [Compound 5a] | much more susceptible to Dcp2 than its D2 counterpart | 71 |  | 2.8 ± 0.3 | 2.8 |  | 
m2^7,2′-OGppspG (D2) [Compound 5b] | stabilized RNA against hDcp2 hydrolysis; also recorded: resistant to hDcp2 hydrolysis | 6 |  |  |  | 5.1 ± 0.5 | 5.1
m2^7,2′-OGpsppG (D1) [Compound 6a] |  | 84 | 2.0 ± 0.1 |  |  |  | 
m2^7,2′-OGpsppG (D2) [Compound 6b] |  | 91 | 1.9 ± 0.1 |  |  |  | 
